Laboratory results from the supplement of paper PMC8612539.
≈ marks a conversion by molar mass, not a printed value.

What was measured:
[1] = tested on: Pasteurella multocida; test: minimum inhibitory concentration (MIC)
Experimental: (§1)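 Broth microdilution MIC (Sensititre BOPO7F bovine plate, CLSI methods) of 19 antimicrobials against field isolates of P. multocida, M. haemolytica, H. somni (deep nasopharyngeal swabs) and E. coli, Enterococcus spp. (rectal swabs) from weaned dairy heifers. Incubation 16-24 h at 35 C. MIC is the lowest concentration preventing visible growth. Values with <= or > lie at the tested range limits. Trimethoprim-sulfamethoxazole is given as the trimethoprim component of a 1:19 mixture.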

[2] = tested on: Enterococcus spp.; test: minimum inhibitory concentration (MIC)
Experimental: as §1

CCC[C@@H]1C[C@@H](C(=O)N[C@@H]([C@H]2O[C@H](SC)[C@H](O)[C@@H](O)[C@H]2O)[C@H](C)Cl)N(C)C1 [Clindamycin]
minimum inhibitory concentration [µg/mL]
Conditions	[1]	[2]
isolate (source animal id): 2	–	≤ 0.25
isolate (source animal id): 10	> 16	–
isolate (source animal id): 11	> 16	–
isolate (source animal id): 12	> 16	–
isolate (source animal id): 19	> 16	–
isolate (source animal id): 23	> 16	–
isolate (source animal id): 26	> 16	–
isolate (source animal id): 35	–	> 16
isolate (source animal id): 42	–	16 (≈ 37.6 µM)
isolate (source animal id): 44	–	16 (≈ 37.6 µM)
isolate (source animal id): 79	–	16 (≈ 37.6 µM)
isolate (source animal id): 88	–	≤ 0.25
isolate (source animal id): 91	–	≤ 0.25
isolate (source animal id): 92	–	2 (≈ 4.71 µM)
isolate (source animal id): 98	> 16	–
isolate (source animal id): 104	> 16	–
isolate (source animal id): 111	–	≤ 0.25
isolate (source animal id): 115	> 16	–
isolate (source animal id): 117	> 16	–
isolate (source animal id): 118	> 16	–
isolate (source animal id): 121	> 16	–
isolate (source animal id): 122	–	> 16
isolate (source animal id): 123	–	8 (≈ 18.8 µM)
isolate (source animal id): 124	> 16	–
isolate (source animal id): 125	> 16	–
isolate (source animal id): 128	> 16	–
isolate (source animal id): 131	> 16	–
isolate (source animal id): 133	–	≤ 0.25
isolate (source animal id): 135	> 16	–
isolate (source animal id): 136	> 16	–
isolate (source animal id): 140	> 16	–
isolate (source animal id): 144	> 16	–
isolate (source animal id): 146	> 16	–
isolate (source animal id): 150	> 16	–
isolate (source animal id): 151	> 16	–
isolate (source animal id): 153	> 16	–
isolate (source animal id): 155	> 16	–
isolate (source animal id): 157	> 16	–
isolate (source animal id): 158	–	> 16
isolate (source animal id): 160	> 16	–
isolate (source animal id): 164	> 16	–
isolate (source animal id): 165	> 16	–
isolate (source animal id): 167	> 16	–
isolate (source animal id): 168	> 16	≤ 0.25
isolate (source animal id): 169	> 16	≤ 0.25
isolate (source animal id): 170	> 16	–
isolate (source animal id): 171	> 16	16 (≈ 37.6 µM)
isolate (source animal id): 172	> 16	–
isolate (source animal id): 173	> 16	–
isolate (source animal id): 174	> 16	–
isolate (source animal id): 175	> 16	> 16
isolate (source animal id): 176	> 16	–
isolate (source animal id): 177	> 16	16 (≈ 37.6 µM)
isolate (source animal id): 178	> 16	–
isolate (source animal id): 179	> 16	–
isolate (source animal id): 181	–	≤ 0.25
isolate (source animal id): 182	> 16	≤ 0.25
isolate (source animal id): 183	–	16 (≈ 37.6 µM)
isolate (source animal id): 187	–	≤ 0.25
isolate (source animal id): 190	–	≤ 0.25
isolate (source animal id): 192	> 16	–
isolate (source animal id): 193	> 16	–
isolate (source animal id): 194	–	16 (≈ 37.6 µM)
isolate (source animal id): 195	8 (≈ 18.8 µM)	≤ 0.25
isolate (source animal id): 196	> 16	–
isolate (source animal id): 197	> 16	0.5 (≈ 1.18 µM)
isolate (source animal id): 198	> 16	–
isolate (source animal id): 199	> 16	–
isolate (source animal id): 200	> 16	–
isolate (source animal id): 201	> 16	–
isolate (source animal id): 203	> 16	–
isolate (source animal id): 204	> 16	–
isolate (source animal id): 205	> 16	–
isolate (source animal id): 206	> 16	–
isolate (source animal id): 207	> 16	–
isolate (source animal id): 208	> 16	–
isolate (source animal id): 209	> 16	–
isolate (source animal id): 210	> 16	–
isolate (source animal id): 211	–	≤ 0.25
isolate (source animal id): 213	> 16	–
isolate (source animal id): 214	–	2 (≈ 4.71 µM)
isolate (source animal id): 216	> 16	–
isolate (source animal id): 222	–	16 (≈ 37.6 µM)
isolate (source animal id): 223	> 16	8 (≈ 18.8 µM)
isolate (source animal id): 227	> 16	–
isolate (source animal id): 228	–	2 (≈ 4.71 µM)
isolate (source animal id): 229	> 16	–
isolate (source animal id): 230	–	2 (≈ 4.71 µM)
isolate (source animal id): 233	> 16	–
isolate (source animal id): 234	> 16	–
isolate (source animal id): 235	–	> 16
isolate (source animal id): 236	–	8 (≈ 18.8 µM)
isolate (source animal id): 237	> 16	–
isolate (source animal id): 239	–	≤ 0.25
isolate (source animal id): 241	> 16	> 16
isolate (source animal id): 244	–	16 (≈ 37.6 µM)
isolate (source animal id): 245	> 16	–
isolate (source animal id): 246	–	16 (≈ 37.6 µM)
isolate (source animal id): 247	> 16	> 16
isolate (source animal id): 250	> 16	16 (≈ 37.6 µM)
isolate (source animal id): 252	–	> 16
isolate (source animal id): 254	> 16	–
isolate (source animal id): 255	> 16	–
isolate (source animal id): 258	> 16	–
isolate (source animal id): 261	> 16	–
isolate (source animal id): 262	> 16	–
isolate (source animal id): 268	–	> 16
isolate (source animal id): 269	> 16	–
isolate (source animal id): 270	> 16	–
isolate (source animal id): 274	> 16	–
isolate (source animal id): 275	> 16	–
isolate (source animal id): 276	> 16	–
isolate (source animal id): 277	> 16	–
isolate (source animal id): 278	> 16	–
isolate (source animal id): 279	> 16	–
isolate (source animal id): 280	> 16	–
isolate (source animal id): 282	–	4 (≈ 9.41 µM)
isolate (source animal id): 284	> 16	–
isolate (source animal id): 285	> 16	> 16
isolate (source animal id): 287	> 16	–
isolate (source animal id): 289	–	8 (≈ 18.8 µM)
isolate (source animal id): 290	> 16	16 (≈ 37.6 µM)
isolate (source animal id): 294	> 16	–
isolate (source animal id): 295	> 16	–
isolate (source animal id): 296	> 16	16 (≈ 37.6 µM)
isolate (source animal id): 298	–	≤ 0.25
isolate (source animal id): 301	–	0.5 (≈ 1.18 µM)
isolate (source animal id): 307	> 16	–
isolate (source animal id): 310	> 16	> 16
isolate (source animal id): 311	> 16	–
isolate (source animal id): 312	> 16	–
isolate (source animal id): 313	> 16	–
isolate (source animal id): 315	> 16	–
isolate (source animal id): 316	> 16	–
isolate (source animal id): 320	–	4 (≈ 9.41 µM)
isolate (source animal id): 331	–	8 (≈ 18.8 µM)
isolate (source animal id): 333	–	16 (≈ 37.6 µM)
isolate (source animal id): 341	–	> 16
